Laboratory results as given in ChEMBL document CHEMBL5634164, “Absolute Configuration of Oxabornyl Polyenes Prugosenes A1-A3 and Structural Revision of Prugosene A2” (J Nat Prod, 2024).

How the values were obtained:
[1] = tested on: Respiratory syncytial virus; test: Antiviral activity against RSV A2 ATCC VR-1540 infected in HEp-2 cells assessed as inhibition of virus induced cytopathic effect measured after 72 hrs; type: functional, organism-based; conditions: human respiratory syncytial virus, A2 ATCC VR-1540, HEp-2, 72 h
[2] = Cytotoxicity against HEp-2 cells; type: toxicity, cell-based; conditions: human

## CC1=C[C@](C)(O)[C@H](C)O[C@@H]1/C(C)=C/C=C/C=C/C=C/C=C/C1(C)C2OC(=O)C1(C)C(=O)C2C (stereo partly drawn)
[1]
  IC50: 6.3 µM
[2]
  CC50: > 100 µM

## CC1=C[C@@](C)(O)[C@@H](/C(C)=C/C=C/C=C/C=C/C=C/C2(C)C3OC(=O)C2(C)C(=O)C3C)O[C@H]1C (stereo partly drawn)
[1]
  IC50: 25 µM
[2]
  CC50: > 100 µM

## CC1=C[C@@](C)(O)[C@H](/C(C)=C/C=C/C=C/C=C/C=C/C2(C)C3OC(=O)C2(C)C(=O)C3C)O[C@H]1C (stereo partly drawn)
[1]
  IC50: 12 µM
[2]
  CC50: > 100 µM

## NC(=O)c1ncn([C@@H]2O[C@H](CO)[C@@H](O)[C@H]2O)n1 [RIBAVIRIN]
[1]
  IC50: 15 µM
[2]
  CC50: > 100 µM
